According to patent publication US12509431B2, “1,4-dihydroquinazolinone compounds and uses thereof” (Edgewise Therapeutics, Inc., priority 2022, dated 2025):
Like-named read-outs stand apart in the source and are kept apart here.

Experiments:
[1] = tested on: Rabbit Skeletal myofibrils (rabbit psoas muscle); assay: Myofibril ATPase assay (PK/LDH NADH-coupled), skeletal myofibrils; type: biochemical
How it was run: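 Rabbit psoas myofibrils in pCa (PIPES/CaCl2/EGTA, pH 7.0) buffer; ADP coupled via PK/LDH to NADH loss, read at 340 nm every 1.5–2 min for 75 min. Slopes normalized to vehicle (100%) and fit to 4-parameter logistic for EC25, plus EC50 for inhibitors.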

[2] = tested on: Porcine Atria myofibrils; assay: Myofibril ATPase assay (PK/LDH NADH-coupled), atria myofibrils; type: biochemical
How it was run: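 Porcine atrial myofibril ATPase followed via PK/LDH-coupled NADH depletion, absorbance at 340 nm read every 1.5-2 min over 75 min. Slopes (mAU/min) normalized to vehicle as 100% and fit to a 4-parameter logistic; EC25% derived, plus EC50% for inhibitors.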

[3] = tested on: isoflurane-anesthetized SD rats; assay: In vivo echocardiography of systolic cardiac performance (FS, SWT, HR, LV volumes) after a single oral dose; conditions: Rattus norvegicus, single dose 10 mg/kg PO, ~2 hrs post-dosing, vs. vehicle
Method: Experiments were performed to evaluate the in vivo ability of the compounds of the disclosure to modulate systolic cardiac performance. Non-invasively echocardiography was used to assess cardiac indicators in isoflurane-anesthetized SD rats. A set of conscious rats were treated with either vehicle control (0 mg/kg PO; n=78) or a single dose of an test compound (10 mg/kg PO, n=2 to 6/compound) via oral gavage. Cardiac function/geometry were recorded at two separate time-points/days: once prior to dosing (i.e., at baseline, day −2) and at ˜2 hrs post-dosing (day 0).
In these experiments, heart rate (HR), echocardiography-derived indices of left-ventricular systolic performance, as well as dimensions/volumes were measured using a high-frequency transducer and parastemnal long-axis transthoracic views (Vevo3100, VisualSonic). LV fractional shortening (FS), an index of systolic function, was defined as the end-diastole normalized change in internal dimensions divided by the […] (LVid) of the left ventricle between end-systole (LVids) and end-diastole (LVidd) (i.e., FS=100·[LVidd−LVids]/LVidd). LV volumes were derived using the Teichholz formula (LVV=7·LVid^3/[2.4+LVid]). In addition, a systolic wall-thickening index (SWT) was also evaluated. SWT is defined as the relative ratio (end-diastole normalized) of left-ventricular (anterior and posterior) wall-thickness change during systole; i.e., SWT=I{[(anterior LV wall thickness in systole−anterior LV wall thickness in diastole)][…][(posterior LV wall thickness in systole−posterior LV wall thickness in diastole)]}/{2*diastolic thickness}. In all cases, blood samples were taken (via either tail-vein micro-sampling or cardiac-puncture) at the time of each echocardiographic examination in order to establish pharmacokinetic (PK)/pharmacodynamics (PD) relationships.

[4] = target: T1, Porcine Ventricle myofibrils (left ventricle of Yucatan minipigs) (Sus scrofa, UniProt P79293); assay: Myofibril ATPase assay (PK/LDH NADH-coupled), ventricle myofibrils; type: biochemical
T1 construct: Myofibrils from porcine cardiac muscle was isolated from the left ventricle of Yucatan minipigs; tissue Exemplar Genetics; host or cells: left ventricle of Yucatan minipigs
T1 sequence (P79293 whole entry): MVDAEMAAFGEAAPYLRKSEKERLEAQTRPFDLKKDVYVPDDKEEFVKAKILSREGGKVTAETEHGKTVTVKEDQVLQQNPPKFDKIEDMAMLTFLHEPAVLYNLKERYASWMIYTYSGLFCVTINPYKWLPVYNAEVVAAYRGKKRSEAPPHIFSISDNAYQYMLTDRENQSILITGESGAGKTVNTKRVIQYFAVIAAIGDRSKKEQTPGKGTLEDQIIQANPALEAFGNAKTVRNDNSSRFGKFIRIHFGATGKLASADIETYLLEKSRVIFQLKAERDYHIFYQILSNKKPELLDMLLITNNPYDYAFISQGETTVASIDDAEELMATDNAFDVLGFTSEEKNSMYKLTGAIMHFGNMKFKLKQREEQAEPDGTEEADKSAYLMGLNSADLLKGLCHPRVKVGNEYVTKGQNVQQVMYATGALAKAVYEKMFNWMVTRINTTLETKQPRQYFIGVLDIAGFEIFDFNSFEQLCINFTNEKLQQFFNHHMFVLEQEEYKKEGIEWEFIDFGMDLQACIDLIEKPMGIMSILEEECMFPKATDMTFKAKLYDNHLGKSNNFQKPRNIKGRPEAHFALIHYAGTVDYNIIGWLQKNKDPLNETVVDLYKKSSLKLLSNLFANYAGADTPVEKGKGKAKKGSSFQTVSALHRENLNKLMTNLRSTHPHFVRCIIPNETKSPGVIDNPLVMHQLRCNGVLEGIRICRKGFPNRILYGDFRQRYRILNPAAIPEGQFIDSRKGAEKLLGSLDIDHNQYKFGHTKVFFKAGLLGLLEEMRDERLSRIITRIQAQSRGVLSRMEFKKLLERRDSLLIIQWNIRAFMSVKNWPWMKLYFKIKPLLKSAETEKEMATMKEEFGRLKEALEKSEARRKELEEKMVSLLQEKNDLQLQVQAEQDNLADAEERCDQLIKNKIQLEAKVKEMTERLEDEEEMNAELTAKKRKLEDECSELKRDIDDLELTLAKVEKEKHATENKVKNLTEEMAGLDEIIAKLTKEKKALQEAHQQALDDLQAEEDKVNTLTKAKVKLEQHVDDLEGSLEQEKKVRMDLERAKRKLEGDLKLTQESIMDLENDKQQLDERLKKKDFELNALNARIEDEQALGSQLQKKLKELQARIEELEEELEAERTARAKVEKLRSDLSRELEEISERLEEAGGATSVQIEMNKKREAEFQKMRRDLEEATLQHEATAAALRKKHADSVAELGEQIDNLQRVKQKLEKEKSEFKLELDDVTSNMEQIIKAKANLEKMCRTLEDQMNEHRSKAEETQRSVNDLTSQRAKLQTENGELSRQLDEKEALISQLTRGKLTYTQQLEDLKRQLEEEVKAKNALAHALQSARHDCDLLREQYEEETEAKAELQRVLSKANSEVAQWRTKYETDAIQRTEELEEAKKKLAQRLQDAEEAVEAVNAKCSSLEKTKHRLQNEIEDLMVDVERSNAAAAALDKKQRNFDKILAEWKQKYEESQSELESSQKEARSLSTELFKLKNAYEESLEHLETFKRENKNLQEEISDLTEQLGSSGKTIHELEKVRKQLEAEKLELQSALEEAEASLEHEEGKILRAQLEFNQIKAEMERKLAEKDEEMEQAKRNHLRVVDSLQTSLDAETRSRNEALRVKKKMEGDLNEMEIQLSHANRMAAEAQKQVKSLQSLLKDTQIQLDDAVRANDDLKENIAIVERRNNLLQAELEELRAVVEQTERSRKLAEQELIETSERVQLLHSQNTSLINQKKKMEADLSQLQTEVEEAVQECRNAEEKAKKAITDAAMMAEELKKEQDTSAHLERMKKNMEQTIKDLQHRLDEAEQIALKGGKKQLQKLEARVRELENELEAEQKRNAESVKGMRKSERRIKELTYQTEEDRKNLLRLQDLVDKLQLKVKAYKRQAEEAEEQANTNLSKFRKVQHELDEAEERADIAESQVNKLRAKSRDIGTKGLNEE
How it was run: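 Yucatan minipig left-ventricle myofibrils; ATPase measured by PK/LDH-coupled NADH loss at 340 nm, read every 1.5-2 min for 75 min. Slopes normalized to vehicle (100%) and fit to 4-parameter logistic model; EC25 and, for inhibitors, EC50 calculated.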

[5] = target: T2, myosin+human ventricle RLC (Sus scrofa, UniProt P79293); assay: NADH-coupled actin-activated ATPase assay, myosin + human ventricle RLC; type: biochemical; conditions: 2 μM myosin, rabbit skeletal actin, 25° C., 1% DMSO
T2 construct: Full-length myosin was resuspended to 1 mg/mL
T2 sequence (P79293 whole entry): as above
Method: (§1) Full-length myosin was resuspended to 1 mg/mL in a buffer containing 500 mM KCl, 10 mM KPi, 15 mM CDTA, pH 8.5. Triton-X was then added to a final concentration of […], and the suspension was agitated for 15 minutes at room temperature to selectively remove the regulatory light chain (RLC). RLC-removed myosin was then precipitated and collected and resuspended in a buffer containing 400 mM KCl, 50 mM Mops, pH 7, 2 mM MgCl2, and 1 mM DTT. Recombinantly expressed and purified human ventricle RLC was added in a 3-fold molar excess to myosin and incubated on ice for 2 hours to allow for reassociation of the RLC onto myosin. Triton (0.1%) was added to the reaction to prevent any non-specific binding events. RLC-exchanged myosin was then precipitated and collected and resuspended in a buffer containing 12 mM PIPES, pH 6.8, […], 2 mM MgCl2, and 1 mM DTT. RLC removal and exchange were confirmed by SDS-PAGE and proteins were visualized using coomassie stain.
(§2) Myosin was resuspended in buffer A (f.c.=12 mM PIPES, pH 6.8, 30 mM KCl, 2 mM MgCl2, 1 mM DTT, 0.1 mg/mL BSA, 0.01% (v/v) Antifoam 204, and 0.6% (v/v) PK/LDH (final reaction contains ≥3.6 U/mL PK and >5.4 U/mL LDH)) at final concentrations of 1 μM for myosin+native RLC and 2 μM for myosin+removed RLC and myosin+human ventricle RLC. Buffer A was then mixed with an equal volume of buffer B (f.c.=12 mM PIPES, pH 6.8, 30 mM KCl, 2 mM MgCl2, 1 mM DTT, 0.1 mg/mL BSA, 0.01% (v/v) Antifoam 204, 0.5 mM NADH, 1.5 mM phosphoenolpyruvate, 1 mM ATP, and 0.3 mg/mL filamentous rabbit skeletal actin) in a 384-well plate. Dose-dependent compound effects were assessed by adding the compounds at varying concentrations between 100 μM and 2 nM, all with a constant final DMSO concentration of 1% v/v. The reactions were run at a constant temperature of 25° C. in the plate reader to monitor the change in A340 over time. Measurements were taken every 90 sec for 75 min to generate raw time-domain absorbance data, which was processed to normalized reaction rates. Normalized enzymatic rates were calculated, using rates observed in 1% (v/v) in DMSO as 100% and 0 slope as 0%. Compound-specific activity curves were generated by plotting the normalized rates versus compound concentration and fitting the data to a 4-parameter logistic model. In addition to the fit parameters, the IC25% was calculated, relative to the 100% normalized value.

[6] = target: T3, myosin+removed RLC (Sus scrofa, UniProt P79293); assay: NADH-coupled actin-activated ATPase assay, myosin + removed RLC; type: biochemical; conditions: 2 μM myosin, rabbit skeletal actin, 25° C., 1% DMSO
T3 construct: Full-length myosin was resuspended to 1 mg/mL
T3 sequence (P79293 whole entry): as above
Method: as §1, §2

[7] = target: T4, myosin+native RLC (Sus scrofa, UniProt P79293); assay: NADH-coupled actin-activated ATPase assay, myosin + native RLC; type: biochemical; conditions: 1 μM myosin, rabbit skeletal actin, 25° C., 1% DMSO
T4 construct: Full-length myosin was resuspended to 1 mg/mL
T4 sequence (P79293 whole entry): as above
Method: as §1, §2

[8] = EDV (LV volume, Teichholz formula), read-out: EDV % vs. VEH
[9] = LV fractional shortening, read-out: FS % vs. VEH
[10] = heart rate, read-out: HR % vs. VEH
[11] = systolic wall-thickening index, read-out: SWT % vs. VEH

Compound: Cc1nc(C#N)cnc1C(C)NC(=O)CN1Cc2c(ccc(F)c2F)NC1=O (single isomer, unassigned) [Compound B55]
- Rabbit Psoas IC25 ([1]; Table 8): 0.0114 µM
- Porcine Atria IC25 ([2]; Table 8): 0.05 µM
- change in vivo at 10 mg/kg [3, 8]: 70%
- change in vivo at 10 mg/kg [3, 9]: -36%
- change in vivo at 10 mg/kg [3, 10]: -5%
- change in vivo at 10 mg/kg [3, 11]: 10%
- Porcine Ventricle IC25 ([4]; Table 8): 0.0533 µM

Compound: C[C@H](NC(=O)CN1Cc2c(ccc(F)c2F)NC1=O)c1ncc(C#N)cc1F [Compound B142]
- Rabbit Psoas IC25 ([1]; Table 8): 0.02168 µM
- Porcine Atria IC25 ([2]; Table 8): 0.04 µM
- change in vivo at 10 mg/kg [3, 8]: 21%
- change in vivo at 10 mg/kg [3, 9]: -81%
- change in vivo at 10 mg/kg [3, 10]: 6%
- change in vivo at 10 mg/kg [3, 11]: -78%
- Porcine Ventricle IC25 ([4]; Table 8): 0.05434 µM

Compound: N#Cc1c(F)ccc2c1CN(CC(=O)N[C@@H](CO)c1ccc(F)cc1F)C(=O)N2 [Compound B152]
- Rabbit Psoas IC25 ([1]; Table 8): 0.03953 µM
- Porcine Atria IC25 ([2]; Table 8): 0.17 µM
- change in vivo at 10 mg/kg [3, 8]: -6%
- change in vivo at 10 mg/kg [3, 9]: 6%
- change in vivo at 10 mg/kg [3, 10]: 1%
- change in vivo at 10 mg/kg [3, 11]: -2%
- Porcine Ventricle IC25 ([4]; Table 8): 0.2946 µM

Compound: C[C@H](NC(=O)CN1Cc2cc(F)ccc2NC1=O)c1ccc(C#N)cn1 [Compound B172]
- Rabbit Psoas IC25 ([1]; Table 8): 2.013 µM
- Potency, Full-length myosin + exchanged human ventricle RLC [5]: 14.39 µM
- Porcine Atria IC25 ([2]; Table 8): 2.94 µM
- Potency, Full-length myosin + RLC removed [6]: >100.0 µM
- Potency, Full-length myosin + native porcine ventricle RLC [7]: 12.32 µM
- Porcine Ventricle IC25 ([4]; Table 8): 20.93 µM

Compound: O=C(CN1Cc2cc(F)ccc2NC1=O)N[C@@H](CO)c1ncc(F)cc1F [Compound B181]
- Rabbit Psoas IC25 ([1]; Table 8): 0.242 µM
- Porcine Atria IC25 ([2]; Table 8): 0.13 µM
- change in vivo at 10 mg/kg [3, 8]: -6%
- change in vivo at 10 mg/kg [3, 9]: -13%
- change in vivo at 10 mg/kg [3, 10]: 8%
- change in vivo at 10 mg/kg [3, 11]: -5%
- Porcine Ventricle IC25 ([4]; Table 8): 1.905 µM

Compound: C[C@H](NC(=O)C1(N2Cc3c(ccc(F)c3F)NC2=O)CC1)c1ncc(C#N)cc1F [Compound B269]
- Rabbit Psoas IC25 ([1]; Table 8): 0.06 µM
- Potency, Full-length myosin + exchanged human ventricle RLC [5]: 0.49 µM
- Porcine Atria IC25 ([2]; Table 8): 0.06 µM
- Potency, Full-length myosin + RLC removed [6]: >100.0 µM
- Potency, Full-length myosin + native porcine ventricle RLC [7]: 0.59 µM
- Porcine Ventricle IC25 ([4]; Table 8): 0.15 µM

Compound: C[C@@H](NC(=O)CN1C(=O)Nc2ccc(F)c(F)c2C1O)c1ncc(C#N)cc1F (some centres unmarked) [Compound B327]
- change in vivo at 10 mg/kg [3, 8]: -2%
- change in vivo at 10 mg/kg [3, 9]: -1%
- change in vivo at 10 mg/kg [3, 10]: 5%
- change in vivo at 10 mg/kg [3, 11]: 10%

Compound: C[C@@H](NC(=O)CN1Cc2cc(F)c(F)cc2NC1=O)c1ncc(C#N)cc1F [Compound B357]
- Rabbit Psoas IC25 ([1]; Table 8): 50.29 µM
- Porcine Atria IC25 ([2]; Table 8): 1.56 µM
- change in vivo at 10 mg/kg [3, 8]: 5%
- change in vivo at 10 mg/kg [3, 9]: -8%
- change in vivo at 10 mg/kg [3, 10]: -5%
- change in vivo at 10 mg/kg [3, 11]: -5%
- Porcine Ventricle IC25 ([4]; Table 8): 100.00 µM

Compound: [2H]C1([2H])c2c(ccc(F)c2F)NC(=O)N1CC(=O)N[C@@H](C)c1ncc(C#N)cc1F [Compound B366]
- Rabbit Psoas IC25 ([1]; Table 8): 0.05 µM
- Porcine Atria IC25 ([2]; Table 8): 0.07 µM
- change in vivo at 10 mg/kg [3, 8]: 82%
- change in vivo at 10 mg/kg [3, 9]: -71%
- change in vivo at 10 mg/kg [3, 10]: -2%
- change in vivo at 10 mg/kg [3, 11]: -41%
- Porcine Ventricle IC25 ([4]; Table 8): 0.77 µM

Compound: [2H]C1([2H])c2c(ccc(F)c2F)NC(=O)N1CC(=O)N[C@H](C)c1ncc(C#N)cc1F [Compound B367]
- Rabbit Psoas IC25 ([1]; Table 8): 0.78 µM
- Porcine Atria IC25 ([2]; Table 8): 0.32 µM
- change in vivo at 10 mg/kg [3, 8]: -6%
- change in vivo at 10 mg/kg [3, 9]: -31%
- change in vivo at 10 mg/kg [3, 10]: 10%
- change in vivo at 10 mg/kg [3, 11]: -32%
- Porcine Ventricle IC25 ([4]; Table 8): 0.55 µM

Compound: C[C@H](NC(=O)CN1C(=O)Nc2cccnc2C12CC2)c1ncc(C#N)cc1F [Compound N26]
- Rabbit Psoas IC25 ([1]; Table 7): 0.04764 µM
- Potency, Full-length myosin + exchanged human ventricle RLC [5]: 1.92 µM
- Porcine Atria IC25 ([2]; Table 7): 0.15 µM
- Potency, Full-length myosin + RLC removed [6]: >100.0 µM
- Potency, Full-length myosin + native porcine ventricle RLC [7]: 2.17 µM
- Porcine Ventricle IC25 ([4]; Table 7): 1.309 µM
